Assay [1] has as its target T1, AeOBP22 (Aedes aegypti, UniProt Q1HRL7).
T1 construct: The mature form of AeOBP22 lacking the N-terminal signal peptide was expressed and purified as previously described; made in house
T1 sequence (Q1HRL7 17-138): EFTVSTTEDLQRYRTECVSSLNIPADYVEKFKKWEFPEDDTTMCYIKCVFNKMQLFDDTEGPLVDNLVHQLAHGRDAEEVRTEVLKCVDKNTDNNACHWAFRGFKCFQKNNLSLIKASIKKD
The assay is described as follows: 1-NPN fluorescent reporter binding. To be noted: result in words.

Assay [2] deals with T1, AeOBP22. The assay is described as follows: NMR 1H-15N HSQC ligand screening / chemical shift perturbation. In kind it is binding. To be noted: protein 100 μM, sodium phosphate pH 6.5; for binding to AeOBP22 judged by NMR: result in words. The procedure:
NMR experiments were performed at 25 °C on a either a Varian 900 MHz DD2, Varian INOVA 600 MHz or Bruker Avance Neo 600 MHz spectrometer. Samples for NMR were dissolved in sodium phosphate (20 mM, pH 6.5) and 90% H2O/10% D2O, with DSS (4,4-dimethyl-4-silapentane-1-sulfonic acid) (80 μM) added as an internal reference,[90]. For ligand screening, protein concentration was 100 μM and ligands were added to a concentration of 200–500 μM. For chemical shift assignments, relaxation rate measurements and structure calculations, protein concentrations were in the 400–700 μM range. All NMR experiments were collected using non uniform sampling methods[91] using the Poisson-gap sampling schemes implemented by Hyberts et al.[92] with a sampling density of 25–50%. Data were processed using the istHMS package v2111[93],[94] in combination with NmrPipe[95] and analyzed using Ccpnmr Analysis v 2.4.2[96].
Chemical shift assignments for the complex with arachidonic acid and the backbone assignments for the apo-protein were previously reported. Backbone ^1H, ^15N, ^13Cα and ^13Cβ assignments for nonadecanoic, linoleic acid (pH 4.5 and pH 6.5), and decanoic acids were made in the same way. All other backbone amide assignments were made by following chemical shift trajectories as a function of ligand concentration or chain length. Normalized chemical shift differences are reported as[97],[98]1 Δδ=(ΔδH^2+0.14∗ΔδN^2)

Assay [3] concerns the target T1, AeOBP22. Description: DAF based competition binding assay (recovery of DAF fluorescence by fatty acids). To be noted: for Kd: pH 8.0 (HEPES 50 mM pH 8.1), 25 °C, ± s.d., n = 3. The procedure:
Binding affinities were determined by monitoring the recovery of DAF florescence as a function of fatty acid concentration. Stock solutions of fatty acid were made by dissolving the fatty acid in 100% DMSO, and then making a 1:1000 dilution into HEPES (50 mM pH 8.1). Samples were vortexed prior to each titration point. The protein/DAF solution contained fixed concentrations of DAF (100 nM) and AeOBP22 (1000 nM).
As there is a single binding site for the fatty acid and the effect of fluorescence quenching can be completely reversed by increasing concentrations of fatty acids, we concluded that the fatty acid is directly competitive with binding of the DAF reporter. Therefore, the term for KD in Eq. 2 can be replaced with Eq. 3.3 Kapp=KD(1+I/KI) where I is the concentration of the competitor and KI is the dissociation constant of the competitor. The emission maxima were fit using Eq. 2 substituted into Eq. 1, with the concentration of the protein and DAF fixed at their known concentrations.

Assay [4] deals with T1, AeOBP22. The assay is described as follows: DAF fluorescence quenching titration with AeOBP22 (direct binding). To be noted: for Kd: direct titration, fluorescence quenching at 513 nm, n = 7. The procedure:
All fluorescence experiments were recorded at 25 °C on a Horiba Fluorolog 3–1–1 spectrofluorometer. DAF spectra were acquired using an excitation wavelength of 490 nm and the emission recorded between 500 and 560 nm at 1 nm intervals with an integration time of 1 s and slit widths of 2 nm. Stock solutions of DAF (Thermo Fisher, Batch D-109) were prepared in methanol with potassium hydroxide (0.2 M) and the concentration measured by UV spectroscopy using an extinction coefficient of 88000 M^−1 cm^−1 at 497 nm provided in the certificate of analysis. A 1:100 dilution was made into HEPES (50 mM, pH 8.1) and the sample vortexed and checked by UV to verify the DAF concentration. A solution of DAF (~80–100 nM) was titrated with increasing AeOBP22 to a final concentration of ~4 μM. The fluorescence intensity (cps) at the emission maxima (513 nm) was plotted against the total concentration of AeOBP22 and the KD for DAF was determined by fitting the raw fluorescence intensity for each replicate to Eq. (1):2 Fi=F0(1−([PT+LT+KD]−[PT+LT+KD]^2−4PTLT)/2LT)−Fmin where Fi is the measured fluorescence, F0 is the initial fluorescence in the absence of any protein, PT is the total protein, LT is the total concentration of DAF, and Fmin is the residual fluorescence after maximal quenching by the protein.

For assay [5], the target named is T1, AeOBP22. The assay is described as follows: DAF based competition binding assay (recovery of DAF fluorescence by fatty acids).
[6] abbreviates: DAF competition, DAF 100 nM, protein 1000 nM, read-out: KD (nM) for binding of fatty acids to AeOBP22.
Where [7] appears, read: KD (nM) for binding of fatty acids to AeOBP22, DAF competition, DAF 100 nM, protein 1000 nM.
[8] abbreviates: DAF competition, DAF 100 nM, protein 1000 nM, pH 8.0, n = 3, read-out: KI (dissociation constant of the competitor).

Where “and” joins values, the source holds several entries; their conditions need not be identical. Equal values may be shown once. Read-outs that look alike come from different tables or passages of the source.

In the case of `c1ccc(Nc2cccc3ccccc23)cc1` [1-NPN], on AeOBP22 [1], the “binding of 1-NPN reporter to AeOBP22” value is listed as “bound with low affinity”.
As to `CCCCCCCC/C=C\CCCCCCCC(=O)OC[C@@H](O)COP(=O)(O)O` [C16-LPA, lyso-phosphatidic acid], the “binding to AeOBP22 judged by NMR” value at AeOBP22 [2] is “failed to identify”.
Take `O=C(O)CCCCCCCCCCCCCCCO` [C16-OH, 16-hydroxy-hexadecanoic acid]: the “competition for binding of the fluorescent reporter (DAF)” value at AeOBP22 [3] (result in words) is recorded as “does not compete”.
Turning to `CCCCCCCCCCCCCCCC(=O)O` [C16:0, palmitic acid], the Kd at AeOBP22 [3] (setting [6]) came out at 689 ± 89 nM.
For the compound `CCCCCC/C=C\CCCCCCCC(=O)O` [C16:1, palmitoleic acid], the Kd on AeOBP22 [3] (setting [6]) was determined as 175 ± 41 nM.
In the case of `CCCCCCCC/C=C\CCCCCCCC(=O)O` [C18:1, Oleic acid], the Kd at AeOBP22 [3] (setting [6]) was 85 nM and 84 nM.
Take `CCCCC/C=C\C/C=C\CCCCCCCC(=O)O` [C18:2, linoleic acid]: on AeOBP22 [3], the inhibition constant (Ki) turned out to be 104 ± 30 nM. For the same compound, the Kd on AeOBP22 [3] (setting [7]) was 104 ± 30 nM.
With `CCCCC/C=C\C/C=C\C/C=C\C/C=C\CCCC(=O)O` [C20:4, arachidonic acid], at AeOBP22 [2], the “binding to AeOBP22 judged by NMR” value is recorded as “binding occurs with high affinity”. Also, the Ki at AeOBP22 [3] worked out at 286 ± 29 nM. In addition, the Kd on AeOBP22 [3] (setting [7]) came to 286 ± 29 nM.
For `CCCCCCCCCCCC(=O)Nc1ccc2c(c1)C(=O)OC21c2ccc(O)cc2Oc2cc(O)ccc21` [DAF, 5-(N-dodecanoyl)-amino-fluorescein], the Kd on AeOBP22 [4] (HEPES pH 8.1, 25 °C, ± s.d., read-out: KD (nM) for binding of DAF to AeOBP22) amounted to 1190 ± 261 nM; at AeOBP22 [4] (read-out: KD of DAF for AeOBP22), 1190 nM. Moreover, the “quenching of DAF fluorescence upon addition of AeOBP22 (reduction from maximal intensity)” value on AeOBP22 [4] (emission maximum 513 nm) is reported as ~ 75%.
For the compound `O=Cc1ccccc1` [benzaldehyde], at AeOBP22 [2], the “ligand concentration at which large NMR chemical shift changes occur” value is over 1 mM and the “binding to AeOBP22 judged by NMR” value was “binding is weak”.
For `CC(C)=CCCC(C)CCO` (centres unmarked) [citronellol], in that order: over 1 mM and “binding is weak”.
For the compound `CC(C)=CCC/C(C)=C/CO` [geraniol], on AeOBP22 [2], the “ligand concentration at which large NMR chemical shift changes occur” value is listed as over 1 mM and the “binding to AeOBP22 judged by NMR” value is on record as “binding is weak”.
`CC/C=C\C/C=C\C/C=C\CCCCCCCC(=O)O` [αC18:3, a-Linoleic acid C18:3 (D9,12,15)]: the Kd at AeOBP22 [3] (setting [6]) was 52 ± 8 nM; on AeOBP22 [5] (pH 5.0, ± s.d., n = 2, read-out: KD (nM) for binding of fatty acid to AeOBP22 at pH 5.0), 42 ± 14 nM; on AeOBP22 [5] (pH 6.5 as printed, read-out: binding affinity at pH 6.5 (as printed in text)) it was 52 ± 8 nM. Further, the Ki at AeOBP22 [3] (setting [8]) turned out to be 52 ± 8 nM; on AeOBP22 [5] (pH 5, n = 2, read-out: KI (dissociation constant of the competitor) at pH 5), 42 ± 14 nM.
`CCCCC/C=C\C/C=C\C/C=C\CCCCC(=O)O` [γC18:3, g-Linoleic acid C18:3 (D6 ,9,12)]: the Kd on AeOBP22 [3] (setting [6]) was determined as 111 ± 27 nM. Also, the Ki at AeOBP22 [3] (setting [8]) stood at 111 ± 27 nM.
Eicosenoic acid [C20:1]: the Kd at AeOBP22 [3] (setting [6]) was 102 ± 16 nM. Moreover, at AeOBP22 [3] (setting [8]), the Ki is 102 ± 16 nM.

Source of the values: paper PMC7039890, “Aedes aegypti Odorant Binding Protein 22 selectively binds fatty acids through a conformational change in its C-terminal tail” (Scientific Reports, 2020).
